The source of these data is patent US5493024A, “3,4,N-trisubstituted-4,5-dihydro-1H-pyrazole-1-carboxamides and their use as insectioides” (DowElanco, priority 1993, dated 1996).

In series [1] the test system is beet armyworm. The series is described as follows: Effect on beet armyworm, contact and ingestion test (treated cotton leaf discs). It is filed as in vivo, S. exigua (beet armyworm). The settings on record: second-instar larvae, sprayed cotton leaf discs, 5 days at 25° C; for LC50: Spodoptera exigua, foliar, 120 h, read-out: BEET ARMYWORM Contact and Ingestion Test LC50, ppm. The method, then: (§1) Effect on Tobacco Budworm and Beet Armyworm by Leaf Ingestion and/or Contact.
(§2) Stock solutions of the compounds to be tested having a known concentration were prepared by dissolving weighed amounts in a 90:10 mixture of high-purity acetone and ethanol and these solutions were diluted with distilled water (containing 0.05 percent by weight Tween 20™ surfactant) to obtain the spray solutions of known concentration employed. Greenhouse-grown cotton leaves of uniform age were cut into 2.5 cm diameter discs and one disc was placed in the bottom of each of a number of 30 mL plastic cups. The cups were then sprayed by means of a track sprayer applying 0.055 mL of spray solution per cup. The leaf discs were allowed to dry and then a single second-instar H. virescens (tobacco budworm) or S. exigua (beet armyworm) larva was added to each cup and each cup was capped with a perforated plastic lid. Ten cups were prepared for each insect species and each application rate and five applications rates were usually run. Treated cups were stored for 5 days at 25° C. and were then graded for mortality. Untreated controls and positive controls (cypermethrin) were run simultaneously. The amount of test chemical required to kill half of the larvae (LD50) was calculated.

Series [2] concerns beet armyworm. The series is described as follows: Effect on beet armyworm, contact test (treated Teflon discs). The settings on record: second-instar larvae, sprayed Teflon discs 24 hours, then 5 more days on untreated leaf, 25° C; for LC50: Spodoptera exigua, 144 h, read-out: BEET ARMYWORM Contact Test LC50, ppm. Format: in vivo, S. exigua (beet armyworm). As for the experimental part: (§3) Effect on Tobacco Budworm and Beet Armyworm by Contact.
(§4) Stock solutions of the compounds to be tested having a known concentration were prepared by dissolving weighed amounts in a 90:10 mixture of high-purity acetone and ethanol and these solutions were diluted with distilled water (containing 0.05 percent by weight Tween 20™ surfactant) to obtain the spray solutions of known concentration employed. Teflon™ discs 5 cm in diameter were placed in plastic petri dishes of slightly larger diameter and these dishes were sprayed by means of a track sprayer applying 0.104 mL of spray solution per cup. The Teflon™ discs were allowed to dry, a single second-instar H. virescens (tobacco budworm) or S. exigua (beet armyworm) larva was placed on each Teflon™ disc, and each disc was capped with a plastic lid. Ten Teflon™ discs were prepared for each application rate and five application rates were usually run. Treated discs were stored for 24 hours at 25° C. and then the Teflon™ disc was removed and replaced with an untreated cotton leaf disc. After 5 more days of storage at 25 ° C. the dishes were graded for mortality. Untreated controls and positive controls (cypermethrin) were run simultaneously. The amount of test chemical required to kill half of the larvae (LD50) was calculated.

The subject of series [3] is tobacco budworm. The series is described as follows: Effect on tobacco budworm, contact and ingestion test (treated cotton leaf discs). Format: in vivo, H. virescens (tobacco budworm). The settings on record: second-instar larvae, sprayed cotton leaf discs, 5 days at 25° C; for LC50: Heliothis virescens, foliar, 120 h, read-out: TOBACCO BUDWORM Contact and Ingestion Test LC50, ppm. The method, then: as §1, §2

The test system of series [4] is tobacco budworm. The series can be described thus: Effect on tobacco budworm, contact test (treated Teflon discs). Format: in vivo, H. virescens (tobacco budworm). The settings on record: second-instar larvae, sprayed Teflon discs 24 hours, then 5 more days on untreated leaf, 25° C; for LC50: Heliothis virescens, 144 h, read-out: TOBACCO BUDWORM Contact Test LC50, ppm. The method, then:
as §3, §4

The subject of series [5] is Blattella germanica nymphs. The series can be described thus: Effect on cockroaches, contact test (treated vials). Format: in vivo. The settings on record: 168 h, 50 ppm solution, after 7 days, 27° C, read-out: percent control, contact test. The method, then:
(§5) Two hundred ppm stock solutions of the compounds to be tested were prepared by dissolving 2.4 milligrams (mg) of each test compound in 12 mL of acetone; four lower concentration solutions were prepared by serial dilution using 3 mL of solution. A 0.5 mL portion of each test solution was pipetted onto 0.2 g of yellow corn meal placed in a small test tube cap (Fisher 02-706-33) and the mixture was placed in a fume hood overnight to allow the solvent to evaporate. […] Each cap was then placed in a 9 cm (centimeter) diameter Petri plate along with a 2 dram vial containing a cotton wick and water. A 0.5 mL portion of each test solution was also pipetted into a 20 mL borosilicate glass scintillation vial. The vials were placed on a roller mixer and the acetone was allowed to evaporate while the vials rolled. […] Five late third or early fourth instar Blattella germanica nymphs weighing 0.01-0.04 g were placed in each vial and each Petri plate and covers were applied loosely to allow entry of air. Each Petri plate and vial was held at 27° C., the Petri plates for 21 days and the vials for 7 days. The percent of mortality was read periodically and at the end of the test.

Series [6] concerns Blattella germanica nymphs. The series is described as follows: Effect on cockroaches, ingestion test (treated corn meal). Format: in vivo. The settings on record: 504 h, after 21 days, 27° C, read-out: percent control, ingestion test; for mortality at 12.5 ppm: 12.5 ppm solution; for mortality at 50 ppm: 50 ppm solution; for mortality at 200 ppm: 200 ppm solution. The method, then:
as §5

In brackets after ≈: the same amount, converted by molar mass.

Usually LC50 stands for the concentration lethal to half of the exposed cells or organisms. Consider `O=C(Nc1ccc(C(F)(F)F)cc1)N1CC(c2ccc(C(F)(F)F)cn2)C(c2ccc(F)cc2)=N1` (centres unmarked) [G, 4,5-Dihydro-3-(4-fluorophenyl)-N-(4-trifluoromethylphenyl)-4-(5-trifluoromethyl-2-pyridinyl)-1H-pyrazole-1-carboxamide], for which the LC50 with beet armyworm [1] turned out to be 1 µg/mL (≈ 2.01 µM); in the series with beet armyworm [2] it was 5 µg/mL (≈ 10.1 µM); with tobacco budworm [3] it was 1.1 µg/mL (≈ 2.22 µM); in the series with tobacco budworm [4], 8.7 µg/mL (≈ 17.5 µM). For the same compound, the values for the mortality at 50 ppm in series [5] and in series [6] were 100% and around 100%, respectively. Besides, in series [6], the mortality at 12.5 ppm was around 100%. Further, the mortality at 200 ppm in series [6] came to 100%.

Turning to `O=C(Nc1ccc(OC(F)(F)F)cc1)N1CC(c2ncc(Cl)cn2)C(c2ccc(F)cc2)=N1` (centres unmarked) [T, 4-(5-Chloro-2-pyrimidinyl)-4,5-dihydro-3-(4-fluorophenyl)-N-(4-trifluoromethoxyphenyl)-1H-pyrazole-1-carboxamide], the LC50 worked out at 1.4 µg/mL (≈ 2.92 µM) in the series with beet armyworm [1], 2.2 µg/mL (≈ 4.59 µM) in the series on beet armyworm [2], 1.3 µg/mL (≈ 2.71 µM) in the series with tobacco budworm [3] and 7.5 µg/mL (≈ 15.6 µM) in the series on tobacco budworm [4]. Besides, the mortality at 50 ppm in series [5] was 100%; in series [6], around 100%. Moreover, the mortality at 12.5 ppm in series [6] was around 100%. In addition, the mortality at 200 ppm in series [6] turned out to be 100%.

“4,5-Dihydro-3-(4-fluorophenyl)-4-(4-fluoro-5-trifluoromethyl-2-pyridinyl)- N-(4-trifluoromethoxyphenyl)-1H-pyrazole-1-carboxamide”: the “BEET ARMYWORM Contact and Ingestion Test LC50, ppm” value with beet armyworm [1] amounted to 5.2 ppm. Moreover, in the series on beet armyworm [2] (8640 min), the “BEET ARMYWORM Contact Test LC50, ppm” value turned out to be 7.6 ppm. Besides, the “TOBACCO BUDWORM Contact and Ingestion Test LC50, ppm” value with tobacco budworm [3] is 10.0 ppm. The “TOBACCO BUDWORM Contact Test LC50, ppm” value in the series on tobacco budworm [4] (8640 min) is 80 ppm.
